Target: T1, Adenosine receptor A3 (Homo sapiens) (UniProt P0DMS8)
T1 sequence (whole entry): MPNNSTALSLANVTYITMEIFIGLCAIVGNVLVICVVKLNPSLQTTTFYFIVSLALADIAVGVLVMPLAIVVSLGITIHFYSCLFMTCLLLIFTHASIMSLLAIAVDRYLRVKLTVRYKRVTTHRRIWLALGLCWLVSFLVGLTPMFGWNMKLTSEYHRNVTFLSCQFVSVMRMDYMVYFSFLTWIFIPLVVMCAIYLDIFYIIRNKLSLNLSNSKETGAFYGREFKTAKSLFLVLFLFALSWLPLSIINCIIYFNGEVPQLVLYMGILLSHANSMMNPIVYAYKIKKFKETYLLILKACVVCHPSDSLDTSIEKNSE
Test: Percent inhibition of cAMP-accumulation in CHO cells by IB-MECA at 1 uM
Assay type: functional, cell-based
Details: not given

| inhibition [%] | SMILES |
| --- | --- |
| 50 | O=C(Nc1cccc(Cl)c1)Nc1nc2nn(CCCc3ccccc3)cc2c2nc(-c3ccco3)nn12 |

Target: T2, Adenosine receptor A3 (Rattus norvegicus) (UniProt P28647)
T2 sequence (whole entry): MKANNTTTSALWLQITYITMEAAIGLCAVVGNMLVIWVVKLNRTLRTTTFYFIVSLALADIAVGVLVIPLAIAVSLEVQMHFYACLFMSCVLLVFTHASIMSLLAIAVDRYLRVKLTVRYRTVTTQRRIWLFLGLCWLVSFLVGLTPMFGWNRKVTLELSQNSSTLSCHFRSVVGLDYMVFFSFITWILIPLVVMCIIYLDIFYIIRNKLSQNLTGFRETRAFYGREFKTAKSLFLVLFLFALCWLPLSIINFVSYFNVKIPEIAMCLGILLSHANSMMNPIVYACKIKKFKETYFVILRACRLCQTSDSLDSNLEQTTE
Assay type: cell-based
Details: CHO, 10 mM

| SMILES | inhibition [%] |
| --- | --- |
| CCn1cc2c(nc(N)n3nc(-c4ccco4)nc23)n1 | 1 |
| COc1ccc(NC(=O)Nc2nc3nn(CCCc4ccccc4)cc3c3nc(-c4ccco4)nn23)cc1 | 11 |
| CCn1cc2c(nc(NC(=O)Nc3ccc(OC)cc3)n3nc(-c4ccco4)nc23)n1 | 39 |
| O=C(Nc1cccc(Cl)c1)Nc1nc2nn(CCc3ccccc3)cc2c2nc(-c3ccco3)nn12 | 30 |
| CCCn1cc2c(nc(NC(=O)Nc3cccc(Cl)c3)n3nc(-c4ccco4)nc23)n1 | 20 |
| Nc1nc2nn(CCCc3ccccc3)cc2c2nc(-c3ccco3)nn12 | 32 |
| Nc1nc2nn(CCc3ccccc3)cc2c2nc(-c3ccco3)nn12 | 12 |
| CCCn1cc2c(nc(N)n3nc(-c4ccco4)nc23)n1 | 2 |

Second part, the compound after the results:

| inhibition [%] | SMILES |
| --- | --- |
| 20 | O=C(Nc1cccc(Cl)c1)Nc1nc2nn(CCCc3ccccc3)cc2c2nc(-c3ccco3)nn12 |
| 37 | CCCn1cc2c(nc(NC(=O)Nc3ccc(OC)cc3)n3nc(-c4ccco4)nc23)n1 |
| 37 | COc1ccc(NC(=O)Nc2nc3nn(CCc4ccccc4)cc3c3nc(-c4ccco4)nn23)cc1 |
| 36 | CCn1cc2c(nc(NC(=O)Nc3cccc(Cl)c3)n3nc(-c4ccco4)nc23)n1 |

Target: T3, Adenosine receptor A1 (Rattus norvegicus, UniProt P25099)
T3 sequence (P25099 whole entry): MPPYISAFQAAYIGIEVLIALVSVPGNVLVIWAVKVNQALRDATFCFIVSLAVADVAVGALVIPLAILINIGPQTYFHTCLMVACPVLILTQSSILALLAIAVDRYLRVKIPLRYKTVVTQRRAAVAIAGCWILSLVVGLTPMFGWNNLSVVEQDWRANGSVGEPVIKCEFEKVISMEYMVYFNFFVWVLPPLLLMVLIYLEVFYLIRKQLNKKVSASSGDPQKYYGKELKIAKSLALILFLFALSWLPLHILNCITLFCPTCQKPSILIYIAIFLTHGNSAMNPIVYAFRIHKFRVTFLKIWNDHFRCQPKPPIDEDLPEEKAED
Test: Displacement of [3H]DPCPX from Adenosine A1 receptor of rat brain membranes
Assay type: cell membranes, Membrane
Details: not given

| Ki [nM] | SMILES |
| --- | --- |
| > 10000 | CCn1cc2c(nc(NC(=O)Nc3ccc(OC)cc3)n3nc(-c4ccco4)nc23)n1 |

Target: T4, Adenosine receptor A1 (Homo sapiens, UniProt P30542)
T4 sequence (P30542 whole entry): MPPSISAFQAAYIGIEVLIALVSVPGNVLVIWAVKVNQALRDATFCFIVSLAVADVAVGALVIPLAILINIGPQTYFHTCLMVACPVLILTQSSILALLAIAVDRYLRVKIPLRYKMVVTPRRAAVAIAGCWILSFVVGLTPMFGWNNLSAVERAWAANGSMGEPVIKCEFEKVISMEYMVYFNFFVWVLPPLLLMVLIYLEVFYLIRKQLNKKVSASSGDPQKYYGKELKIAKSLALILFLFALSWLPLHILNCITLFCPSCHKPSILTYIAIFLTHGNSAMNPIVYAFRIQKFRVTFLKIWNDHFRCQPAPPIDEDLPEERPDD
Test: Displacement of [3H]DPCPX from human Adenosine A1 receptor expressed in CHO cells
Assay type: cell-based
Details: not given

| SMILES | Ki [nM] |
| --- | --- |
| CCn1cc2c(nc(N)n3nc(-c4ccco4)nc23)n1 | 5 |
| COc1ccc(NC(=O)Nc2nc3nn(CCCc4ccccc4)cc3c3nc(-c4ccco4)nn23)cc1 | 251 |
| O=C(Nc1cccc(Cl)c1)Nc1nc2nn(CCc3ccccc3)cc2c2nc(-c3ccco3)nn12 | 251 |
| CCCn1cc2c(nc(NC(=O)Nc3cccc(Cl)c3)n3nc(-c4ccco4)nc23)n1 | 30 |
| Nc1nc2nn(CCCc3ccccc3)cc2c2nc(-c3ccco3)nn12 | 3 |
| Nc1nc2nn(CCc3ccccc3)cc2c2nc(-c3ccco3)nn12 | 1 |
| CCCn1cc2c(nc(N)n3nc(-c4ccco4)nc23)n1 | 10 |

More lines, now with the values ahead:

| Ki [nM] | SMILES |
| --- | --- |
| 1500 | O=C(Nc1cccc(Cl)c1)Nc1nc2nn(CCCc3ccccc3)cc2c2nc(-c3ccco3)nn12 |
| 201 | COc1ccc(NC(=O)Nc2nc3nn(CCc4ccccc4)cc3c3nc(-c4ccco4)nn23)cc1 |
| 249 | CCn1cc2c(nc(NC(=O)Nc3cccc(Cl)c3)n3nc(-c4ccco4)nc23)n1 |

Target: T5, Adenosine receptor A3 (Homo sapiens, UniProt P0DMS8)
T5 sequence (P0DMS8 whole entry): T1 sequence (whole entry)
Test: Inhibitory concentration as antagonistic activity against cAMP generation inhibited by IB-MECA in CHO cell membranes transfected with human A3 receptor
Assay type: functional, cell-based
Details: not given

| IC50 [nM] | SMILES |
| --- | --- |
| 6.5 | CCn1cc2c(nc(NC(=O)Nc3ccc(OC)cc3)n3nc(-c4ccco4)nc23)n1 |
| 5.3 | CCCn1cc2c(nc(NC(=O)Nc3cccc(Cl)c3)n3nc(-c4ccco4)nc23)n1 |
| 12.4 | COc1ccc(NC(=O)Nc2nc3nn(CCc4ccccc4)cc3c3nc(-c4ccco4)nn23)cc1 |

Target: T5, Adenosine receptor A3
Test: Inhibitory concentration as antagonistic activity against cAMP generation inhibited by IB-MECA in CHO cell membranes transfected with human Adenosine A3 receptor
Assay type: functional, cell-based
Details: not given

| IC50 [nM] | SMILES |
| --- | --- |
| 40.2 | CCCn1cc2c(nc(N)n3nc(-c4ccco4)nc23)n1 |
| 15.1 | CCn1cc2c(nc(NC(=O)Nc3cccc(Cl)c3)n3nc(-c4ccco4)nc23)n1 |

Target: T6, Adenosine receptor A2a (Homo sapiens, UniProt P29274)
T6 sequence (P29274 whole entry): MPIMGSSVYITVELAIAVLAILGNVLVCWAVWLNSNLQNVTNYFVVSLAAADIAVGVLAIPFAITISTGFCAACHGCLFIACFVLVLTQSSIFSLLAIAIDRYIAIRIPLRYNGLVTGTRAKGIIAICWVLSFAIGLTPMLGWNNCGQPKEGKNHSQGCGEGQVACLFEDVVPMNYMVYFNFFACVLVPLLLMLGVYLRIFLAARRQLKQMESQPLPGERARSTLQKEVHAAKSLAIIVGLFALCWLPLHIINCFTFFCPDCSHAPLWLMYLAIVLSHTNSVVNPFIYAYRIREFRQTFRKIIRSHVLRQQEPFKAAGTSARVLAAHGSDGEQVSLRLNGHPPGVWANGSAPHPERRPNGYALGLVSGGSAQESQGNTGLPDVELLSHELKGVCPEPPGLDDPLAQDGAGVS
Test: Displacement of specific [3H]-SCH- 58261 binding at human Adenosine A2A receptor expressed in HEK293 cells
Assay type: cell-based
Details: not given

| SMILES | Ki [nM] |
| --- | --- |
| CCn1cc2c(nc(N)n3nc(-c4ccco4)nc23)n1 | 1.9 |
| COc1ccc(NC(=O)Nc2nc3nn(CCCc4ccccc4)cc3c3nc(-c4ccco4)nn23)cc1 | 1020 |
| O=C(Nc1cccc(Cl)c1)Nc1nc2nn(CCc3ccccc3)cc2c2nc(-c3ccco3)nn12 | 110 |
| Nc1nc2nn(CCCc3ccccc3)cc2c2nc(-c3ccco3)nn12 | 0.18 |
| Nc1nc2nn(CCc3ccccc3)cc2c2nc(-c3ccco3)nn12 | 0.31 |
| CCCn1cc2c(nc(N)n3nc(-c4ccco4)nc23)n1 | 2.55 |

Continued, values first:

| Ki [nM] | SMILES |
| --- | --- |
| 202 | O=C(Nc1cccc(Cl)c1)Nc1nc2nn(CCCc3ccccc3)cc2c2nc(-c3ccco3)nn12 |
| 124 | COc1ccc(NC(=O)Nc2nc3nn(CCc4ccccc4)cc3c3nc(-c4ccco4)nn23)cc1 |
| 185 | CCn1cc2c(nc(NC(=O)Nc3cccc(Cl)c3)n3nc(-c4ccco4)nc23)n1 |

Target: T1, Adenosine receptor A3 (Homo sapiens)
Test: Percent inhibition of cAMP-accumulation in CHO cells by IB-MECA at 1 uM.
Assay type: functional, cell-based
Details: not given

| inhibition [%] | SMILES |
| --- | --- |
| 3 | CCn1cc2c(nc(N)n3nc(-c4ccco4)nc23)n1 |
| 56 | COc1ccc(NC(=O)Nc2nc3nn(CCCc4ccccc4)cc3c3nc(-c4ccco4)nn23)cc1 |
| 62 | O=C(Nc1cccc(Cl)c1)Nc1nc2nn(CCc3ccccc3)cc2c2nc(-c3ccco3)nn12 |
| 5 | Nc1nc2nn(CCc3ccccc3)cc2c2nc(-c3ccco3)nn12 |
| 81 | COc1ccc(NC(=O)Nc2nc3nn(CCc4ccccc4)cc3c3nc(-c4ccco4)nn23)cc1 |

| SMILES | inhibition [%] |
| --- | --- |
| Nc1nc2nn(CCCc3ccccc3)cc2c2nc(-c3ccco3)nn12 | 6 |

Target: T6, Adenosine receptor A2a
Test: Displacement of [3H]-SCH- 58261 from human Adenosine A2A receptor expressed in HEK293 cells
Assay type: cell-based
Details: not given

| Ki [nM] | SMILES |
| --- | --- |
| 1220 | CCCn1cc2c(nc(NC(=O)Nc3cccc(Cl)c3)n3nc(-c4ccco4)nc23)n1 |

Tested on: HEK293
Test: Ratio of binding affinity for rat adenosine A1 and human adenosine A3 receptors expressed in HEK293 cells
Assay type: cell-based
Details: not given

| SMILES | Ratio |
| --- | --- |
| CCn1cc2c(nc(N)n3nc(-c4ccco4)nc23)n1 | 0.03 |
| O=C(Nc1cccc(Cl)c1)Nc1nc2nn(CCCc3ccccc3)cc2c2nc(-c3ccco3)nn12 | > 234 |
| COc1ccc(NC(=O)Nc2nc3nn(CCCc4ccccc4)cc3c3nc(-c4ccco4)nn23)cc1 | 76.4 |
| O=C(Nc1cccc(Cl)c1)Nc1nc2nn(CCc3ccccc3)cc2c2nc(-c3ccco3)nn12 | 79 |
| Nc1nc2nn(CCCc3ccccc3)cc2c2nc(-c3ccco3)nn12 | 0.004 |
| COc1ccc(NC(=O)Nc2nc3nn(CCc4ccccc4)cc3c3nc(-c4ccco4)nn23)cc1 | 872 |
| CCCn1cc2c(nc(N)n3nc(-c4ccco4)nc23)n1 | 0.22 |

Tested on: HEK293
Test: Ratio of binding affinity for rat adenosine A2A of striatal membranes and human adenosine A3 receptors expressed in HEK293 cells
Assay type: cell-based
Details: not given

| SMILES | Ratio |
| --- | --- |
| CCn1cc2c(nc(N)n3nc(-c4ccco4)nc23)n1 | 0.003 |
| O=C(Nc1cccc(Cl)c1)Nc1nc2nn(CCCc3ccccc3)cc2c2nc(-c3ccco3)nn12 | 75 |
| COc1ccc(NC(=O)Nc2nc3nn(CCCc4ccccc4)cc3c3nc(-c4ccco4)nn23)cc1 | > 504 |
| O=C(Nc1cccc(Cl)c1)Nc1nc2nn(CCc3ccccc3)cc2c2nc(-c3ccco3)nn12 | 128 |
| Nc1nc2nn(CCCc3ccccc3)cc2c2nc(-c3ccco3)nn12 | 0.0002 |
| COc1ccc(NC(=O)Nc2nc3nn(CCc4ccccc4)cc3c3nc(-c4ccco4)nn23)cc1 | 951 |
| CCCn1cc2c(nc(N)n3nc(-c4ccco4)nc23)n1 | 0.03 |

Target: Adenosine receptors; A1 & A3 (Homo sapiens) (UniProt P30542+P0DMS8)
Test: Ratio of binding affinity for human adenosine A1 and A3 receptors expressed in HEK293 cells
Assay type: cell-based
Details: not given

| Ratio | SMILES |
| --- | --- |
| 0.0014 | CCn1cc2c(nc(N)n3nc(-c4ccco4)nc23)n1 |
| 12.6 | COc1ccc(NC(=O)Nc2nc3nn(CCCc4ccccc4)cc3c3nc(-c4ccco4)nn23)cc1 |
| 19 | O=C(Nc1cccc(Cl)c1)Nc1nc2nn(CCc3ccccc3)cc2c2nc(-c3ccco3)nn12 |
| 136 | COc1ccc(NC(=O)Nc2nc3nn(CCc4ccccc4)cc3c3nc(-c4ccco4)nn23)cc1 |
| 0.016 | CCCn1cc2c(nc(N)n3nc(-c4ccco4)nc23)n1 |

| SMILES | Ratio |
| --- | --- |
| Nc1nc2nn(CCCc3ccccc3)cc2c2nc(-c3ccco3)nn12 | 0.001 |

Target: Adenosine receptor A2a (Rattus norvegicus, UniProt P30543)
Sequence (P30543 whole entry): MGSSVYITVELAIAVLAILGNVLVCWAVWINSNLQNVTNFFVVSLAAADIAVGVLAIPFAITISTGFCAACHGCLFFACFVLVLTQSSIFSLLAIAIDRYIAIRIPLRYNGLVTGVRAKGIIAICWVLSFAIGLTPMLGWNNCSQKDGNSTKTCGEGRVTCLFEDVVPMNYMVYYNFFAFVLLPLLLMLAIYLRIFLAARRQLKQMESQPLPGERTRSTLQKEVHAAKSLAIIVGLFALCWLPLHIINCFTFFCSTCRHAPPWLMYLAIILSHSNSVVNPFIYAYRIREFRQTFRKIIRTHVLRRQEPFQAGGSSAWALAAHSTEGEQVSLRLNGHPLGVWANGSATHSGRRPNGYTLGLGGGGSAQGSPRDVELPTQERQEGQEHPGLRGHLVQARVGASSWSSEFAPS
Details: not given

| Ki [nM] | SMILES |
| --- | --- |
| > 10000 | CCn1cc2c(nc(NC(=O)Nc3ccc(OC)cc3)n3nc(-c4ccco4)nc23)n1 |
| > 10000 | CCCn1cc2c(nc(NC(=O)Nc3cccc(Cl)c3)n3nc(-c4ccco4)nc23)n1 |

Target: T1, Adenosine receptor A3 (Homo sapiens)
Details: CHO, 1 uM
Description: Percent inhibition of cAMP-accumulation in CHO cells expressing hA3 adenosine receptors by IB-MECA at 1 uM.

| inhibition [%] | SMILES |
| --- | --- |
| 88 | CCn1cc2c(nc(NC(=O)Nc3ccc(OC)cc3)n3nc(-c4ccco4)nc23)n1 |
| 87 | CCCn1cc2c(nc(NC(=O)Nc3cccc(Cl)c3)n3nc(-c4ccco4)nc23)n1 |
| 71 | CCn1cc2c(nc(NC(=O)Nc3cccc(Cl)c3)n3nc(-c4ccco4)nc23)n1 |

Target: T1, Adenosine receptor A3 (Homo sapiens)
Details: CHO, 1 uM
Remark: another data set of the same source
Description: Perent inhibition of cAMP-accumulation in CHO cells expressing human Adenosine A3 receptor by IB-MECA at 1 uM.

| inhibition [%] | SMILES |
| --- | --- |
| 89 | CCCn1cc2c(nc(NC(=O)Nc3ccc(OC)cc3)n3nc(-c4ccco4)nc23)n1 |

— ChEMBL document CHEMBL1132457 (J Med Chem, 1999)
